One data set has as its system HeLa KRas^V12 cells. The experiment in a line: Macropinocytic uptake of fluorescently labeled non-binding FN domain, co-localization with TMR-dextran (doxycycline-inducible system). The format is cell-based, human. An excerpt:
(§1) FIG. 2A and FIG. 2B show the uptake of the fluorescently-tagged monobody and MP marker in human PDAC MIA PaCa and HeLa or HeLa KRas^V12 cells. Co-localization of the fluorescently-tagged monobody (green) and MP marker (dextran, red) in. DAPI, blue. Boxed region is enlarged, inset.
(§2) To determine if non-binding FN domains could be internalized, a well-established doxycycline-inducible mutant KRas^V12 HeLa cell system (hereafter, HeLa KRas^V12) was used in which macropinocytosis is monitored by high-molecular-weight (70 kDa) tetramethyl-rhodamine labeled (TMR−) dextran.

The test system of data set [1] is mutant KRas PDAC cell line MIA PaCa-2. Nature of the data set: Macropinocytic uptake, co-localization with dextran. Format: cell-based, human.
Description: as §1, §2

The test system of the next data set is KPC 1203 cells. Described as above. The format is cell-based, mouse.
Data set [2] deals with KMS11 WT Ras, L363 Mutant NRAS, and RPMI 8226 Mutant KRas cells. Nature of the data set: Uptake of fluorescently-tagged monobody and MP marker in multiple myeloma cell lines. Format: cell-based, human. The source says: FIGS. 14A-14C show uptake of fluorescently-tagged monobody and MP marker in human multiple myeloma cancer cell lines. FIGS. 14A and 14B are images showing co-localization of the fluorescently-tagged monobody (red) and MP marker (dextran, green) in KMS11 WT Ras, L363 Mutant NRAS, and RPMI 8226 Mutant KRas cells. DAPI, blue.
The differential uptake was established not only in cell lines of solid tumors, but also in blood cancer such as multiple myeloma. […] Using a similar system to the HeLa KRas^V12 inducible system, we created an inducible KRas^V12 cell system in wild type KRas KMS11 multiple myeloma cells.

A short description of data set [3]: Ex vivo organ toxicity analysis (H&E, apoptotic markers, tubulin staining) of MIA PaCa tumor bearing mice. The format is in vivo. As for the experimental part: FIGS. 5A-5B show the enhanced toxicity of FN-MMAE (monobody) in oncogenic KRas cell lines in vivo. In FIG. 5A, established (100-150 mm^3) subcutaneous MiaPaCa and BxPC3 tumors were treated with, PBS (negative control), 0.2 mg/kg of MMAE alone, or 0.2 mg/kg of FN-MMAE non-binding protein conjugate on Days 0, 7, and 14 (yellow arrows). Tumor growth as assessed by volume was slower in FN-MMAE treated animals compared to MMAE treated alone. n=4 per treatment group. Error bars represent SEM of tumor volume.
FIGS. 6A-6B show ex vivo analysis and mode of action of MMAE.
To test the effects in vivo, a MIA PaCa-2 subcutaneous tumor model was used to compare the efficacy of PBS, MMAE, and FN-MMAE (FIG. 5A). After tumors were established, three injections of 0.2 mg/kg drug with respect to MMAE concentration was administered every 7 days. […] This highlights the specificity of reduced uptake by non-macropinocytic cells in relation to free drug, which contributes to the selective effect of the non-binding FN domain-drug conjugate.

Square brackets hold non-standard residues; d marks the D form. Peptide text beside a SMILES is read from it. * marks the point of attachment. Dolaproine = CO[C@@H]([C@@H]1CCCN1)[C@@H](C)C(=O)O; Dil = CC[C@H](C)[C@H](NC)[C@@H](CC(=O)O)OC; X1 = C[C@@H](N*)[C@@H](O)c1ccccc1; NMeV = CN[C@H](C(=O)O)C(C)C

For the compound `CCN(c1nc(N)c(C(=O)NC(=N)N)nc1Cl)C(C)C` [EIPA], in the data set with HeLa KRas^V12 cells, the “effect of macropinocytosis inhibitor on FN domain and dextran uptake” value is “blocked both non-binding FN domain and dextran uptake”. Further, the “effect of macropinocytosis inhibitor on uptake of dextran and FN-Cy5.5” value (in data set [1]; with KPC 1203 cells) was “abolished uptake of both macromolecules” in each case. For the same compound, in data set [2], the “effect of macropinocytosis inhibitor on FN-Cy5.5 uptake” value was “abolished”.

Turning to `CC(Sc1nc2ccccc2[nH]1)C(=O)N/N=C/c1cc(Br)ccc1O` (centres unmarked) [KH7], in data set [2], the “effect of macropinocytosis inhibitor on FN-Cy5.5 uptake” value is given as “abolished”.

In the case of `CC[C@H](C)[C@@H]([C@@H](CC(=O)N1CCC[C@H]1[C@H](OC)[C@@H](C)C(=O)N[C@H](C)[C@@H](O)c1ccccc1)OC)N(C)C(=O)[C@@H](NC(=O)[C@@H](NC)C(C)C)C(C)C` [MMAE, monomethyl auristatin E] (H-[NMeV]V[Dil][Dolaproine]-X1), the “H&E of ex vivo organs” value in data set [3] (MIA PaCa tumor bearing mice) was “visual liver damage”. Besides, the tubulin staining entry in data set [3] (kidneys) is listed as “drastically reduced”. In addition, the “apoptotic marker expression (CC3, HMGB1, cleaved Parp1)” value in data set [3] (kidneys, compared to PBS) was “substantial increase in non-specific toxicity”.
